Reference: ChEMBL document CHEMBL1201862, “PubChem BioAssay data set” (2004)
Activity calls are given as the source filed them.

Key:
[1] = HEp-2 cell cytotoxicity, dose response, cytotoxicity control for RSV inhibitor project, HTS (AID 2410); format: functional; conditions: human respiratory syncytial virus
Vero [2] = experiment: cells; format: functional, cell-based; conditions: Chlorocebus sabaeus
cells [3] = experiment: cells
BJ [4] = experiment: cells; format: functional, cell-based; conditions: Homo sapiens
BJ [5] = experiment: cytotoxicity toward BJ-TERT-LT-ST fibroblasts, dose response, cell-based, RAS-independent, luminescence (AID 1935); format: functional; conditions: Homo sapiens;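 note: BJ fibroblasts immortalized with TERT plus LT and ST oncogenes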
BJ [6] = experiment: cytotoxicity toward BJ-TERT fibroblasts, dose response, cell-based, RAS-independent, luminescence (AID 1933); format: functional; conditions: Homo sapiens
[7] = cytotoxicity toward DRD oncogenic fibroblasts, dose response, cell-based, non-viral oncogenic, luminescence (AID 1934); format: functional; conditions: Homo sapiens
Vero [8] = experiment: cells; format: functional; conditions: Chlorocebus sabaeus
[9] = target: T1, Oxysterols receptor LXR-beta (Homo sapiens, UniProt P55055); format: functional, cell-based;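 note: Cell-based luminescence dose-response assay of agonist activity at LXR, run as a confirmatory counterscreen to a daf-12 agonist screen; HEK293 cells with Gal4-LXR fusion and GAL4-driven luciferase reporter; agonist potency from rising luciferase signal of a Gal4-LXR reporter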
T1 sequence (P55055 whole entry): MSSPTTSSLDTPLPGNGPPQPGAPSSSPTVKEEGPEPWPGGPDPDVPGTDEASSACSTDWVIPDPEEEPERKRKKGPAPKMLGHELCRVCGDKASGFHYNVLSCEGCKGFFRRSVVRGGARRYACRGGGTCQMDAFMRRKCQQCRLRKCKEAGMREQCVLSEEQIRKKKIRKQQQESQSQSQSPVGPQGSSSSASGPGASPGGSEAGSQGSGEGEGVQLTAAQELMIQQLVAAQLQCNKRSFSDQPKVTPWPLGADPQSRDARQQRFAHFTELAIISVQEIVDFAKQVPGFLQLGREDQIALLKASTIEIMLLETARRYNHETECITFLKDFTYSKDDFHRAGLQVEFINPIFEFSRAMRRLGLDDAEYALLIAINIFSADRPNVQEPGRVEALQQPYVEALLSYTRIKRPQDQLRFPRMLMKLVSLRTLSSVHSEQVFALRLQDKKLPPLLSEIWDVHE

[10] = M. tuberculosis H37Rv growth inhibitors, H37Rv strain (AID 1626); format: functional
Protein skinhead-1 = target: T2, Protein skinhead-1 (Caenorhabditis elegans, UniProt P34707); format: functional
T2 sequence (P34707 whole entry): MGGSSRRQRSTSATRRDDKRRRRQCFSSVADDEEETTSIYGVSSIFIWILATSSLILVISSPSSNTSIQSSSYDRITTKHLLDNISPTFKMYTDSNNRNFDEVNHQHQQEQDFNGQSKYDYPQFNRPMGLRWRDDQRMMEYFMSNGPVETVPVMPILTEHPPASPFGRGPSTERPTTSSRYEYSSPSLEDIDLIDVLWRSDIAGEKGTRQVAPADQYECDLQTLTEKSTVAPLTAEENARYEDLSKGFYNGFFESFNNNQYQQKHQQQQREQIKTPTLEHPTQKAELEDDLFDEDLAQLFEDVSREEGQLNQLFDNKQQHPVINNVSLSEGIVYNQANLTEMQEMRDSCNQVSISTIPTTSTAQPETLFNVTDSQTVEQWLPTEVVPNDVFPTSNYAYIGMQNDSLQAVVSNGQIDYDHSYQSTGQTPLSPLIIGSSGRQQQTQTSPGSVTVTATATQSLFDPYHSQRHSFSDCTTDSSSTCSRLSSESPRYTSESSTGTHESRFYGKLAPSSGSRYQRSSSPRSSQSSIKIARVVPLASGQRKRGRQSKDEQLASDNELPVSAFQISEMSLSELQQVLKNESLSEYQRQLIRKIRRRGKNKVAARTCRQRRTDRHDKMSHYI

cells [11] = experiment: cells; remark: listed apart in the source
[12] = target: Lysosomal acid glucosylceramidase (Homo sapiens, UniProt P04062); experiment: Dose response cell-based high throughput screening assay to identify enhancers of beta-glucosidase activity. [Related pubchem assays: 784 ]; format: functional
Caspase-3 = target: T3, Caspase-3 (Homo sapiens, UniProt P42574); format: functional;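 note: Dose-response selectivity test against caspase-3 for candidate inhibitors of sentrin-specific proteases (SENPs)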
T3 sequence (P42574 whole entry): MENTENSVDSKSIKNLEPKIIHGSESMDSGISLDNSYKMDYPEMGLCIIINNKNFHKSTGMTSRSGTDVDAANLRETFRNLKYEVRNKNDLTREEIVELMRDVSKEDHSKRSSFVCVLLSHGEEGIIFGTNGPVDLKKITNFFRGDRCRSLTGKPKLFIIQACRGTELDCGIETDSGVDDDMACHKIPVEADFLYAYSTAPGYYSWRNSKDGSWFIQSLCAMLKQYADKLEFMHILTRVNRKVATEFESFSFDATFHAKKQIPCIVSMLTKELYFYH

[13] = target: T4, Sentrin-specific protease 6 (Homo sapiens, UniProt Q9GZR1); format: functional;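 note: Luminescence-based dose-response confirmatory assay of SENP6 inhibition, following up an ultra-high-throughput screen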
T4 sequence (Q9GZR1 whole entry): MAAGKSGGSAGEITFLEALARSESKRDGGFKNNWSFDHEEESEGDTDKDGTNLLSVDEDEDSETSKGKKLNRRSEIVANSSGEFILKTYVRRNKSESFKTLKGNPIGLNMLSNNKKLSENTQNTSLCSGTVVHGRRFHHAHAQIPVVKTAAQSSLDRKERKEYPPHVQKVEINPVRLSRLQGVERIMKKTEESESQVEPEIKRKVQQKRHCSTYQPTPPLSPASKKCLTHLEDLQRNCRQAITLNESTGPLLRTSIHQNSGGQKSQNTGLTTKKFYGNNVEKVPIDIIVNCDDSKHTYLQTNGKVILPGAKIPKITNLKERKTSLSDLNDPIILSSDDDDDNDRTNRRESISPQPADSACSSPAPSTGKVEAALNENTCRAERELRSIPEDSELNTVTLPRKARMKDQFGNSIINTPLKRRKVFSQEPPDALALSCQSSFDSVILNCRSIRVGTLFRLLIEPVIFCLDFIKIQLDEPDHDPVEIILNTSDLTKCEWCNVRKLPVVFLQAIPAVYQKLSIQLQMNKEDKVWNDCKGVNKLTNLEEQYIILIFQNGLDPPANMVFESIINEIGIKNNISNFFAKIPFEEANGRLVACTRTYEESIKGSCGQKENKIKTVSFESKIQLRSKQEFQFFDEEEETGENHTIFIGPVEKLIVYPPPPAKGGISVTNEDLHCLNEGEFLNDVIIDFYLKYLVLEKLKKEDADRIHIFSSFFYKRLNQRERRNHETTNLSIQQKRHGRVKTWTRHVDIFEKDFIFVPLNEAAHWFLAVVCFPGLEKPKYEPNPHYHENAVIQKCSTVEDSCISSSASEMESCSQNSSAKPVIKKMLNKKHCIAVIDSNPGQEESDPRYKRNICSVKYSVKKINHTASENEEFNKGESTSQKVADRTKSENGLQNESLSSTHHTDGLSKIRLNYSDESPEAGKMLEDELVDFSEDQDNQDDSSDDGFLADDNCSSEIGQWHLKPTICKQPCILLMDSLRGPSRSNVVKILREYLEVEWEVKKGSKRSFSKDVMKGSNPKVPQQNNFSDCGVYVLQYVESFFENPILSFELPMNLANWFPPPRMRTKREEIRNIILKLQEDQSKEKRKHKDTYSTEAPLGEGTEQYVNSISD

[14] = Luminescence Cell-Based Dose Response HTS to Identify Activators of Luciferase Translation or Activity in H4 […] Cells. [Related pubchem assays: 1829 (Project Summary), 1814 (Primary HTS)]; format: functional
[15] = Luminescence Cell-Based Dose Response to Identify Activators of Luciferase Translation or Activity in H4-C Neuroglioblastoma Cells. [Related pubchem assays: 1829 (Project Summary), 1814 (Primary HTS)]; format: functional
[16] = cytotoxicity in HPDE-C7 cells, cell-based, fluorescence, HTS (AID 430); format: functional; conditions: Homo sapiens
[17] = target: Disintegrin and metalloproteinase domain-containing protein 17 (Homo sapiens, UniProt P78536); experiment: exosite inhibitors of ADAM17, dose response, biochemical (AID 743260)
[18] = cytotoxicity in KRAS-transformed pancreatic duct cells, primary screen, cell-based, fluorescence, HTS (AID 431); format: functional; conditions: Homo sapiens;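 note: cell line used: HPDE-C7K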
[19] = Luminescence Cell-Based Dose Response to Identify Activators of 5'UTR Stem-Loop Driven Prion Protein mRNA Translation in H4-C Neuroglioblastoma Cells. [Related pubchem assays: 1829 (Project Summary), 1814 (Primary HTS)]; format: functional
[20] = target: T5, Sentrin-specific protease 8 (Homo sapiens, UniProt Q96LD8); format: functional;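 note: luminescence read-out of SENP8 inhibition, dose-response confirmation following an ultra-high-throughput screen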
T5 sequence (Q96LD8 whole entry): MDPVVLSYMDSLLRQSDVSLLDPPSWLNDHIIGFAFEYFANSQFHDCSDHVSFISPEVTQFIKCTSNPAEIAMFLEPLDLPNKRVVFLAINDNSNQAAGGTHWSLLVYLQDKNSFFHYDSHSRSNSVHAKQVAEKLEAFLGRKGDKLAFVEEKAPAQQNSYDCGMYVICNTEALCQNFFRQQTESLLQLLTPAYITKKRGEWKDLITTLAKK

H4 = experiment: Luminescence Cell-Based Dose Response HTS to Identify Activators of 5'UTR Stem-Loop Driven Prion Protein mRNA Translation in H4 Neuroglioblastoma Cells. [Related pubchem assays: 1829 (Project Summary), 1814 (Primary HTS)]; format: functional; conditions: Homo sapiens
[21] = target: T6, Sentrin-specific protease 7 (Homo sapiens, UniProt Q9BQF6); format: functional;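 note: Luminescence-based dose-response confirmation of ultra-high-throughput screening hits, measuring inhibition of SENP7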
T6 sequence (Q9BQF6 whole entry): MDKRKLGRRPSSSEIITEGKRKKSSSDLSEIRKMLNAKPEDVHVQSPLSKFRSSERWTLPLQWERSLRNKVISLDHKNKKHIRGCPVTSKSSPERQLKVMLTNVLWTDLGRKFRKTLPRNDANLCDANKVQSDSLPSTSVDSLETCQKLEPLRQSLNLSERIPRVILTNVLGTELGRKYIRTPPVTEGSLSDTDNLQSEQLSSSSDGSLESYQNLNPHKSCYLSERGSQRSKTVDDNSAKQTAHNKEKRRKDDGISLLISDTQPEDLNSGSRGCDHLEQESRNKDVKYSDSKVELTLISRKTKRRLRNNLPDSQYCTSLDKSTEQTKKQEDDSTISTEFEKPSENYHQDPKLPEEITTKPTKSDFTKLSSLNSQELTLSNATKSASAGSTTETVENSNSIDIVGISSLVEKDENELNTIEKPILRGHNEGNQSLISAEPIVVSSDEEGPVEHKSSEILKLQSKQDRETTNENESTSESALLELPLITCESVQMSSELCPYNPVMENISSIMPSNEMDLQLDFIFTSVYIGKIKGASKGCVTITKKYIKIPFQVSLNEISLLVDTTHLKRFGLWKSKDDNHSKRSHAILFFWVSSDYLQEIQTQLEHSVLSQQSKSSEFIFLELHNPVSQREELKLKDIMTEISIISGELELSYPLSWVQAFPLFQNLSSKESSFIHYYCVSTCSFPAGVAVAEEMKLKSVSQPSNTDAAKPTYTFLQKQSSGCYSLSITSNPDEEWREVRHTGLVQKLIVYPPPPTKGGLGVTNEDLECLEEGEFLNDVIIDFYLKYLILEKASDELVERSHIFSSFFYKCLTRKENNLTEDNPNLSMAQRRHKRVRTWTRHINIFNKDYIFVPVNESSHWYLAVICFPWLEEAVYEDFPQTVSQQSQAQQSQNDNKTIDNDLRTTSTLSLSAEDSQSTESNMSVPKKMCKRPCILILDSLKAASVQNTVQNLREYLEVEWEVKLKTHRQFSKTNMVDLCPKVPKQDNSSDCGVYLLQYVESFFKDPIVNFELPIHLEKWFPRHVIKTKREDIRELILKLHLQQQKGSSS

[22] = Luminescence Cell-Based Dose Confirmation to Identify Activators of 5'UTR Stem-Loop Driven Alpha-Synuclein mRNA Translation in H4 Neuroglioblastoma Cells. [Related pubchem assays: 1829 (Project Summary), 1814 (Primary HTS)]; format: functional
Aminopeptidase N = Aminopeptidase N (Plasmodium falciparum FcB1/Columbia, UniProt O96935); experiment: P. falciparum M1AAP inhibitors, biochemical, fluorogenic H-Leu-NHMec substrate, 1536-well (AID 1445); parameters: species or system Plasmodium falciparum 3D7, 3D7
[23] = target: T7, Polyadenylate-binding protein 1 (Homo sapiens, UniProt P11940); experiment: PABP1 MLLE–PAM2 binding inhibitor potency, dose response, biochemical, fluorescence polarization, FITC-PAM2 peptide (AID 602259); format: functional; conditions: read-out: IC50_Mean
[24] = target: T7, Polyadenylate-binding protein 1; experiment: PABP1 MLLE–PAM2 interaction inhibitors, dose response, miRNA deadenylation inhibitor project, biochemical, fluorescence polarization, Cy5-PAM2 peptide, secondary (AID 602260); format: functional; conditions: read-out: IC50_Mean
[25] = cytotoxicity toward NIH3T3 fibroblasts, dose response, counter-screen, cell-based, ATP luminescence, mouse fibroblasts (AID 2010); format: functional;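 note: cells exposed to compound for about 90 hours before reading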
[26] = inhibitors of intracellular T. cruzi replication, confirmation, NIH3T3 host cells, beta-gal luminescence (AID 2044); format: functional, cell-based;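 note: intracellular parasites grown in NIH/3T3 mouse fibroblasts as host cells; luminescent beta-galactosidase reporter signal from transgenic T. cruzi replicating inside host cells; inhibitors lower the luminescence signal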

Sequence of Lysosomal acid glucosylceramidase (P04062 whole entry): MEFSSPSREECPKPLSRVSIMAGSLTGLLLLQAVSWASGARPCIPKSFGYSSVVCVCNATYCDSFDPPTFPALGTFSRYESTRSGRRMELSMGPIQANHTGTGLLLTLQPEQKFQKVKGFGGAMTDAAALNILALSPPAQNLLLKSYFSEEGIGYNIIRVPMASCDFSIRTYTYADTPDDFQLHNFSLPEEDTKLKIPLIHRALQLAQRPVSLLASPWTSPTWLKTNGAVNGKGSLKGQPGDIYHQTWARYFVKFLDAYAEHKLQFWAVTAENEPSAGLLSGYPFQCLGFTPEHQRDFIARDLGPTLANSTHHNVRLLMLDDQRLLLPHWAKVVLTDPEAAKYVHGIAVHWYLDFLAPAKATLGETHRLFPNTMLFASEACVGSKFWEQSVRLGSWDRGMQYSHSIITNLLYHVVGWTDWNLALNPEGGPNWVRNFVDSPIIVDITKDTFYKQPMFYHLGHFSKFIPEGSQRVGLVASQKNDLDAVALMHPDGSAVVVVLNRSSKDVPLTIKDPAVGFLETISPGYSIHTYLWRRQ
T7 sequence (P11940 whole entry): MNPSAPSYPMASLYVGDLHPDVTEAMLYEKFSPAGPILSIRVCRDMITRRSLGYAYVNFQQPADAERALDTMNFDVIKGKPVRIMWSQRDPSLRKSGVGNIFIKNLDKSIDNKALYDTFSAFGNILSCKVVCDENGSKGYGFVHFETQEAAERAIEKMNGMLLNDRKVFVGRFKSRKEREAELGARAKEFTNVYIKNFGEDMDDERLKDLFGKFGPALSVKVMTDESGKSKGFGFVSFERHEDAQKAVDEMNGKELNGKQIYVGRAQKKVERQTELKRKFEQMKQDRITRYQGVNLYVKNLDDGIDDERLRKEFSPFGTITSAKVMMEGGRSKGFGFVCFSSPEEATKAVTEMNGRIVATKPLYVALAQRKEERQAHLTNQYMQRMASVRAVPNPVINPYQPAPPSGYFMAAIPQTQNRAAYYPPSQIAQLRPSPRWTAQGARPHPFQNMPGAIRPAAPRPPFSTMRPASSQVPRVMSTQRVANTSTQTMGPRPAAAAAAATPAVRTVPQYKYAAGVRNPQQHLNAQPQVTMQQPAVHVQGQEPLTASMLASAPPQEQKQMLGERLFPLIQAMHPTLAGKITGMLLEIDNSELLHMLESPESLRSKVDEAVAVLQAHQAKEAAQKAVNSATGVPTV
Sequence of Disintegrin and metalloproteinase domain-containing protein 17 (P78536 whole entry, the tested form may be a part): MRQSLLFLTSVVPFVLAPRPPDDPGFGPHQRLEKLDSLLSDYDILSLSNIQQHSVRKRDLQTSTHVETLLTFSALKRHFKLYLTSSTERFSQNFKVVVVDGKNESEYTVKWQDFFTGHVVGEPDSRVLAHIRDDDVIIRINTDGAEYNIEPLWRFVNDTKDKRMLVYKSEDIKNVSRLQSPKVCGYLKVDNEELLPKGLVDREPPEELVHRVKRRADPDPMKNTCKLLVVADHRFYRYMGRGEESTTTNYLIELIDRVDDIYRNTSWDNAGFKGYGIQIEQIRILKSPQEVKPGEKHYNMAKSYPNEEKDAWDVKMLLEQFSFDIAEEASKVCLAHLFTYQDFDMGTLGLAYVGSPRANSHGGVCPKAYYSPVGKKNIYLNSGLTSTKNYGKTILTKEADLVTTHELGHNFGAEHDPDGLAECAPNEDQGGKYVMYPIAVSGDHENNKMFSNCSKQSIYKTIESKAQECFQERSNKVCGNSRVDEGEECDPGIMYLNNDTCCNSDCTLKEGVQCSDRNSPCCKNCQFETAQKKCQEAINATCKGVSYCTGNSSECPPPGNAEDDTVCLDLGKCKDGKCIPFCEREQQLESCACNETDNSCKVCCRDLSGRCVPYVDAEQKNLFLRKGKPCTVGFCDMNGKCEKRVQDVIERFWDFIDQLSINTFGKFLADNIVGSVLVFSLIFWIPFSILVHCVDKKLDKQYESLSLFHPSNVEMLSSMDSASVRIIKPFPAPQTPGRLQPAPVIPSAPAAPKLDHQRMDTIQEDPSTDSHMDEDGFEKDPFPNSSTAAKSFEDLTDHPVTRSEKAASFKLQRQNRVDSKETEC
Sequence of Aminopeptidase N (O96935 whole entry): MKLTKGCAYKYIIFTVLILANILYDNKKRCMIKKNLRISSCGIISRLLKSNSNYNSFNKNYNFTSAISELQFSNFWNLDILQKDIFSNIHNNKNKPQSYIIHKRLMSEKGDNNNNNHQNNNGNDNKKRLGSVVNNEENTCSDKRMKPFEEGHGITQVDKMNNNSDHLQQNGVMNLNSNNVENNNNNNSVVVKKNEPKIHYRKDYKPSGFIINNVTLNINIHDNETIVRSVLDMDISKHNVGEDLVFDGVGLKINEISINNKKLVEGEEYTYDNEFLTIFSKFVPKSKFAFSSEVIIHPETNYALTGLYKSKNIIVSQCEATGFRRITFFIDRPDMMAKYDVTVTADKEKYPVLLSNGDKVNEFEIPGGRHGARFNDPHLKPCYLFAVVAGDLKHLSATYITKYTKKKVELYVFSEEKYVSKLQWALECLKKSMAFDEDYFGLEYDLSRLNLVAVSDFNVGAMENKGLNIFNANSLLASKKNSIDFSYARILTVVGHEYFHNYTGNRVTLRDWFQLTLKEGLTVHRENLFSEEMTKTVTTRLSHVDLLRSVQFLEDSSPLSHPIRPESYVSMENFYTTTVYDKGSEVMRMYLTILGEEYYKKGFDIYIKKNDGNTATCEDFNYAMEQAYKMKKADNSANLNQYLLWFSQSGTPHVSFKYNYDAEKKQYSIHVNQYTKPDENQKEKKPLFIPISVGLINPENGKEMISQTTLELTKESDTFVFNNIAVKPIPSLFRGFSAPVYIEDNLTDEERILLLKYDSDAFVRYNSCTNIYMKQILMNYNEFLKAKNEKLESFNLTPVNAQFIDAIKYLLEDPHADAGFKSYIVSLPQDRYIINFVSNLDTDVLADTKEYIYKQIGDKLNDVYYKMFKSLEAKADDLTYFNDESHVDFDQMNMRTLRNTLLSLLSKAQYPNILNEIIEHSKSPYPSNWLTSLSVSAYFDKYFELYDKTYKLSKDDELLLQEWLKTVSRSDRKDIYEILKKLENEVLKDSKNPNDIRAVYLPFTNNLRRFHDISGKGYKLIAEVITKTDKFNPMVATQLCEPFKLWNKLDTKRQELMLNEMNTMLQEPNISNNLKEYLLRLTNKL

COc1cc(NC(=S)NC(=O)c2ccc(C(C)(C)C)cc2)ccc1NC(=O)c1cccs1
CC50 [1]: 18.9 µM (active) | IC50 (Vero [2]): 2.5 µM (active) | IC50 (cells [3]): 8.44 µM (active) | EC50 (BJ [4]): 32.9 µM (inconclusive) | EC50 (BJ [5]): > 150 µM (inconclusive) | EC50 (BJ [6]): 60.4 µM (active) | EC50 [7]: 72.6 µM (active) | CC50 (Vero [8]): > 25 µM (active)

Cc1ccc(N/C=C(/C(=O)c2ccco2)C(=O)C(F)(F)F)cc1Cl
EC50 [9]: > 67.5 µM (inactive) | IC50 [10]: > 100 µM (active) | IC50 (Protein skinhead-1): 27.2 µM (active) | EC50 (cells [11]): > 67.5 µM (inactive)

O=C(CCS(=O)(=O)c1cccc2nonc12)N1CCCc2ccccc21
EC50 [12]: > 50 µM (not active)

CC(C)(C)c1ccc(OCc2nc(-c3ccccn3)no2)c(Br)c1
IC50 (Caspase-3): 33.8 µM (active) | IC50 [13]: 17.6 µM (active) | EC50 [14]: < 0.1 µM (active) | EC50 [15]: 0.91 µM (active) | EC50 [16]: 11.5 µM (active) | IC50 [17]: > 69.5 µM (inactive) | EC50 [18]: 11.9 µM (active) | EC50 [19]: 0.683 µM (active) | IC50 [20]: 13.5 µM (active) | EC50 (H4): < 0.1 µM (active) | IC50 [21]: 5.88 µM (active) | EC50 [22]: 0.114 µM (active)

Sc1nnc(Cc2ccccc2)n1Cc1ccco1
EC50 [12]: > 50 µM (not active)

CCNc1cc2oc(=O)c(CN3CCOCC3)c(C)c2cc1C
IC50 (Aminopeptidase N): 32.2 µM (active) | IC50 [23]: > 66 µM (inactive) | IC50 [24]: > 66 µM (inactive)

CCOc1ccc2nc(NC(=O)CSC3=NCCS3)sc2c1
IC50 [10]: > 100 µM (active)

COC(=O)c1cc(NC(=O)CC2S/C(=N/c3ccccc3)N(CCc3c[nH]c4ccccc34)C2=O)cc(C(=O)OC)c1 (centres undefined)
CC50 [1]: > 50 µM (active) | EC50 [25]: > 60 µM (inconclusive) | IC50 (cells [3]): 41.7 µM (active) | EC50 [26]: 1.11 µM (active)
